# Experimental data published in ChEMBL document CHEMBL5108011, “Design, synthesis and antitumor evaluation of ATP dual-mimic 2,4-diarylaminopyrimidine and aminoindazole conjugates as potent anaplastic lymphoma kinase inhibitors” (Eur J Med Chem, 2022).
# Activity calls are given as the source filed them. The calls are words filed in the database; no cut-off is given here.
# Columns and labels:
# [1] = target: ALK tyrosine kinase receptor (Homo sapiens, UniProt Q9UM73); test: Inhibition of ALK (unknown origin) incubated for 1 hr and measured by mobility shift assay
# Sequence of ALK tyrosine kinase receptor (Homo sapiens, UniProt Q9UM73) (Q9UM73 whole entry): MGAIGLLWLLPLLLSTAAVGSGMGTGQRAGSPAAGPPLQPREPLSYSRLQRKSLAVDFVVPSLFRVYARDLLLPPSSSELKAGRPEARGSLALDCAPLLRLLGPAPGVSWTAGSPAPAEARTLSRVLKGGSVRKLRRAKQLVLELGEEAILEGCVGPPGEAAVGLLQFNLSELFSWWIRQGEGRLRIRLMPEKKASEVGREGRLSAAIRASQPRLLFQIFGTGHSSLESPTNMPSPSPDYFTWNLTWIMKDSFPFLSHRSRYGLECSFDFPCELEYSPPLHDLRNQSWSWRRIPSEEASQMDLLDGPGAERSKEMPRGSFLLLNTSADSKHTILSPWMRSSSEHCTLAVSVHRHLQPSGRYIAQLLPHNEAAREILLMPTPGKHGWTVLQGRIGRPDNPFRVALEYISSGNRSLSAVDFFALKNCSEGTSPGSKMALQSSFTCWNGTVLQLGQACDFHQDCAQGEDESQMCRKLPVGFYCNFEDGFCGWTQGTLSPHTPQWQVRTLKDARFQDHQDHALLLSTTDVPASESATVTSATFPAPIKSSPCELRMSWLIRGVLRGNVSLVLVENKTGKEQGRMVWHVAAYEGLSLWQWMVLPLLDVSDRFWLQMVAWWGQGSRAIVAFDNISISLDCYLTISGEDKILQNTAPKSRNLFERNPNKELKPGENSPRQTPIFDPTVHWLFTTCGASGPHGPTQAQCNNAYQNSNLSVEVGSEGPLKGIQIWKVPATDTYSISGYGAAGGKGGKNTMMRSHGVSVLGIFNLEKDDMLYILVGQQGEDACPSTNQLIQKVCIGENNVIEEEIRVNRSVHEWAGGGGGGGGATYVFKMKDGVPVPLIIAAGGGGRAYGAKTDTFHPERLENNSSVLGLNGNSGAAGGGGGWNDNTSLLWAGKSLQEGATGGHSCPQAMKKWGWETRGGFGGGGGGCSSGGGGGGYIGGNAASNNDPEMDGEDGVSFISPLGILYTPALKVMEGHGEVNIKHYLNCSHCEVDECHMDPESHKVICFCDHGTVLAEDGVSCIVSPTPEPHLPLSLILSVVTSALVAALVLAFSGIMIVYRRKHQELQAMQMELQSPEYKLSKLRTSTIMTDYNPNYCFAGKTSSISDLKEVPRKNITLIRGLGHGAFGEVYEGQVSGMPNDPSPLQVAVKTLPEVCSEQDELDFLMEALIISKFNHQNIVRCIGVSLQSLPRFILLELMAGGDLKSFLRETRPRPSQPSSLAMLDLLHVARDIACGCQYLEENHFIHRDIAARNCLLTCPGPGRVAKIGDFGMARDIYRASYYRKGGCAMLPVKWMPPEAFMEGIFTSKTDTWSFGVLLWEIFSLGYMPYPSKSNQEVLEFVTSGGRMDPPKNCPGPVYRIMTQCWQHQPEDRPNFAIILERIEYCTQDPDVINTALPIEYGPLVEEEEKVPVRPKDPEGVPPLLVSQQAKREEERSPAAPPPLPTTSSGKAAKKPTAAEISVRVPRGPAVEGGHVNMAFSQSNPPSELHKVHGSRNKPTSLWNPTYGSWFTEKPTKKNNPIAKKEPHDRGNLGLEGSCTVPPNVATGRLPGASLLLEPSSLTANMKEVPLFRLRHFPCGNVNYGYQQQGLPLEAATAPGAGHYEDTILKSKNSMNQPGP
# [2] = target: ALK tyrosine kinase receptor (Homo sapiens, UniProt Q9UM73, L1196M); test: Inhibition of ALK L1196M mutant (unknown origin) incubated for 1 hr and measured by mobility shift assay
# Sequence of ALK tyrosine kinase receptor (Homo sapiens, UniProt Q9UM73, L1196M) (Q9UM73 19-1620 L1196M limits assumed): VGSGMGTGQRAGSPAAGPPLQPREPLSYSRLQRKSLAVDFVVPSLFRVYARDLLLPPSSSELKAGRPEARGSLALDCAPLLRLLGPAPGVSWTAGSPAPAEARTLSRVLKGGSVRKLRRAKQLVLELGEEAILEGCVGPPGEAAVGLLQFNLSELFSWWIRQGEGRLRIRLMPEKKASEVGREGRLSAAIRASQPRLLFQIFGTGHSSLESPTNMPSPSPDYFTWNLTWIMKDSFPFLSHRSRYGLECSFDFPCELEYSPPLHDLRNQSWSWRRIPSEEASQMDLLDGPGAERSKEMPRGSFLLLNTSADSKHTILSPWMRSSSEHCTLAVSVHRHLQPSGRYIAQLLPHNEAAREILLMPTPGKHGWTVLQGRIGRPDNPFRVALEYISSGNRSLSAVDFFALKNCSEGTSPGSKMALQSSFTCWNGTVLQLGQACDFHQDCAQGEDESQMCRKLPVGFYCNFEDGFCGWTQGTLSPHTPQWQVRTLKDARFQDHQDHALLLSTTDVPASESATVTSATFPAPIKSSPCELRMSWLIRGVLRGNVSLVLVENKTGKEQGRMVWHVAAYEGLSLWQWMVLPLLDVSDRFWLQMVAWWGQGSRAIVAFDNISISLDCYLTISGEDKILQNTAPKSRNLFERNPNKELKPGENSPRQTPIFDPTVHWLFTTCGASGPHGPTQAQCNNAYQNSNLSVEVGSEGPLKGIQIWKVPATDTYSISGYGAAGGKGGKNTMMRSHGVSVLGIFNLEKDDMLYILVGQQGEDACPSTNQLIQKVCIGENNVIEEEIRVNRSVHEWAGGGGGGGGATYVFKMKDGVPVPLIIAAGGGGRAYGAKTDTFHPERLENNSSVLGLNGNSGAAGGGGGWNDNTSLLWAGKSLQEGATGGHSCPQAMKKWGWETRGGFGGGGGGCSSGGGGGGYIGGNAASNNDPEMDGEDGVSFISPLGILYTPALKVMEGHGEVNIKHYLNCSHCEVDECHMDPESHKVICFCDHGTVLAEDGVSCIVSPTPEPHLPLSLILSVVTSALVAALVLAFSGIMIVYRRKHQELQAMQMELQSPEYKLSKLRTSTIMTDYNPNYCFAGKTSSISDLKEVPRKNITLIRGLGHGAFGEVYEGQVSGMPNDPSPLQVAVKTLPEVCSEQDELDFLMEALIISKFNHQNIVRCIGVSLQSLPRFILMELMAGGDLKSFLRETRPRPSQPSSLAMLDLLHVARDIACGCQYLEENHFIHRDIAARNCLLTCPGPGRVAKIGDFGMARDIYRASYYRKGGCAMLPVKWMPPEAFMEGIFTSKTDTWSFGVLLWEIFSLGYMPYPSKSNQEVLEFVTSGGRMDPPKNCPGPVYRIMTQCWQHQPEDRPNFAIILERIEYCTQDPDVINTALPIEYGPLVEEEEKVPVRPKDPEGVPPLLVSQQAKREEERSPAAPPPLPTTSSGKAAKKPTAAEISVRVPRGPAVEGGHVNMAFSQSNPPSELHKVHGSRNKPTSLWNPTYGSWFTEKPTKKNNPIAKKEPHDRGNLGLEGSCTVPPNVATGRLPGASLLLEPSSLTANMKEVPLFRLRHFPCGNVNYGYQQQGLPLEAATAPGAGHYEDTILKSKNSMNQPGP
# [3] = target: ALK tyrosine kinase receptor (Homo sapiens, UniProt Q9UM73, G1202R); test: Inhibition of ALK G1202R mutant (unknown origin) incubated for 1 hr and measured by mobility shift assay
# Sequence of ALK tyrosine kinase receptor (Homo sapiens, UniProt Q9UM73, G1202R) (Q9UM73 19-1620 G1202R limits assumed): as the sequence (Q9UM73 19-1620 L1196M limits assumed) above, with M1178L, G1184R counted along it
# [4] = target: Epidermal growth factor receptor (Homo sapiens, UniProt P00533); test: Inhibition of EGFR (unknown origin) incubated for 1 hr and measured by mobility shift assay
# Sequence of Epidermal growth factor receptor (P00533 whole entry): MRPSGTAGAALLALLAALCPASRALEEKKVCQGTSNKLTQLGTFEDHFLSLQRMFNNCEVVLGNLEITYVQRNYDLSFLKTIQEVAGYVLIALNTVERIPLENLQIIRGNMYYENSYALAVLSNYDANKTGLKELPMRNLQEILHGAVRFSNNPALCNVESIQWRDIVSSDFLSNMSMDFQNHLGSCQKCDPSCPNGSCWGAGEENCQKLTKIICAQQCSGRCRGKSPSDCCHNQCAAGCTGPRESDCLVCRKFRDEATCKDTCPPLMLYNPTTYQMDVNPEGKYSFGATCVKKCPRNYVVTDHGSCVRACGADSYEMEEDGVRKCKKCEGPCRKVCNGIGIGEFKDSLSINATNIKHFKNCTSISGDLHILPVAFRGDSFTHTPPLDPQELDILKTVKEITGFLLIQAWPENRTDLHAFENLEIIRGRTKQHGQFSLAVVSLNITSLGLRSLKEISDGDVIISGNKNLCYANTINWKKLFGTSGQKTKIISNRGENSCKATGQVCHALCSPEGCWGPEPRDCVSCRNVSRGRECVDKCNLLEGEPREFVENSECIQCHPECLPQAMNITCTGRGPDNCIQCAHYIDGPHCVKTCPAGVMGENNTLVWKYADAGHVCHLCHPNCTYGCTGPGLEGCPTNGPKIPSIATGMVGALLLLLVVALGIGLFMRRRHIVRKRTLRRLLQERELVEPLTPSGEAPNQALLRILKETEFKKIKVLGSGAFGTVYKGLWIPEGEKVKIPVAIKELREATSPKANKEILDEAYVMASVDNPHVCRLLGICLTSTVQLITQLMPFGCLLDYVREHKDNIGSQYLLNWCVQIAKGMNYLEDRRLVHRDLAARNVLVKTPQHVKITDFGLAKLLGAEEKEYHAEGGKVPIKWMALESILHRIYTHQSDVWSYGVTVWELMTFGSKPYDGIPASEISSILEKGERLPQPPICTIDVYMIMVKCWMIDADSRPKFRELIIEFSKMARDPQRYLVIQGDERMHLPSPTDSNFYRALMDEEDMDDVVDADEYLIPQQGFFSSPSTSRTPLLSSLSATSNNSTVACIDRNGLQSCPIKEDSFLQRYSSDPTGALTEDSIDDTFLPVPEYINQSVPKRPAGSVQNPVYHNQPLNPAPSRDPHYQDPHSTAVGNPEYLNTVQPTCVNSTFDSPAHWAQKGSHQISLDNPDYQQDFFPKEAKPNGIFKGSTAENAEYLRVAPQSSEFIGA
# [5] = system: NCI-H460; test: Antiproliferative activity against human NCI-H460 cells incubated for 72 hrs and measured by CCK-8 assay; assay type: functional, cell-based; details: NCI-H460, 72 h
# [6] = system: NCI-H1581; test: Antiproliferative activity against human NCI-H1581 cells incubated for 72 hrs and measured by CCK-8 assay; assay type: functional, cell-based; details: NCI-H1581, 72 h
# [7] = system: MCF7; test: Antiproliferative activity against human MCF7 cells incubated for 72 hrs and measured by CCK-8 assay; assay type: functional, cell-based; details: MCF7, 72 h
# [8] = system: HCT-116; test: Antiproliferative activity against human HCT-116 cells incubated for 72 hrs and measured by CCK-8 assay; assay type: functional, cell-based; details: HCT-116, 72 h
# [9] = system: PC-3; test: Antiproliferative activity against human PC-3 cells incubated for 72 hrs and measured by CCK-8 assay; assay type: functional, cell-based; details: PC-3, 72 h
# [10] = Cytotoxicity against human HELF cells incubated for 72 hrs and measured by CCK-8 assay; assay type: toxicity, cell-based
# [11] = system: NCI-H2228; test: Antiproliferative activity against EML4-ALK-positive human NCI-H2228 cells incubated for 3 days at 25 to 100 nM and assessed as decrease in number of colonies by colony formation assay; assay type: functional, cell-based; details: dose 25-100 nM, time 3.0 day
# [12] = system: NCI-H2228; test: Inhibition of cell migration in EML4-ALK-positive human NCI-H2228 cells assessed as relative migration rate at 5 nM measured after 24 hrs by cell scratch assay (reference value: 21.4 %); assay type: functional; set-up: scale not given: the % may be the effect or the level left
# [13] = system: NCI-H2228; test: Inhibition of cell migration in EML4-ALK-positive human NCI-H2228 cells assessed as relative migration rate at 10 nM measured after 24 hrs by cell scratch assay (reference value: 21.4 %); assay type: functional; set-up: scale not given: the % may be the effect or the level left
# [14] = system: NCI-H2228; test: Inhibition of cell migration in EML4-ALK-positive human NCI-H2228 cells assessed as relative migration rate at 5 nM measured after 48 hrs by cell scratch assay (reference value: 35.99 %); assay type: functional; set-up: scale not given: the % may be the effect or the level left
# [15] = system: NCI-H2228; test: Inhibition of cell migration in EML4-ALK-positive human NCI-H2228 cells assessed as relative migration rate at 10 nM measured after 48 hrs by cell scratch assay (reference value: 35.99 %); assay type: functional; set-up: scale not given: the % may be the effect or the level left
# [16] = system: NCI-H2228; test: Induction of apoptosis in EML4-ALK-positive human NCI-H2228 cells assessed as increase in apoptotic cells at 100 to 200 nM measured after 48 hrs by AO/EB staining based inverted fluorescence microscopic analysis; assay type: functional, cell-based; details: dose 100-200 nM, DDE = dose-dependent effect
# [17] = system: NCI-H2228; test: Induction of apoptosis in EML4-ALK-positive human NCI-H2228 cells assessed as increase in apoptotic cells at 100 to 200 nM measured after 48 hrs by Hoechst 33342 staining based assay; assay type: functional, cell-based; details: dose 100-200 nM, DDE = dose-dependent effect
# [18] = system: NCI-H2228; test: Induction of apoptosis in EML4-ALK-positive human NCI-H2228 cells assessed as apoptotic rate at 100 nM measured after 48 hrs by annexin V-FITC/propidium iodide staining based flow cytometry (reference value: 6.6%); assay type: functional
# [19] = system: NCI-H2228; test: Induction of apoptosis in EML4-ALK-positive human NCI-H2228 cells assessed as apoptotic rate at 200 nM measured after 48 hrs by annexin V-FITC/propidium iodide staining based flow cytometry (reference value: 6.6%); assay type: functional
# [20] = system: NCI-H2228; test: Cell cycle arrest in EML4-ALK-positive human NCI-H2228 cells assessed as cells accumulation at G0/G1 phase at 25 nM (reference value: 53.24%); assay type: functional
# [21] = system: NCI-H2228; test: Cell cycle arrest in EML4-ALK-positive human NCI-H2228 cells assessed as cells accumulation at G2/M phase at 25 nM (reference value: 11.28%); assay type: functional
# [22] = system: NCI-H2228; test: Cell cycle arrest in EML4-ALK-positive human NCI-H2228 cells assessed as cells accumulation at S phase at 25 nM (reference value: 35.48%); assay type: functional
# [23] = system: NCI-H2228; test: Cell cycle arrest in EML4-ALK-positive human NCI-H2228 cells assessed as cells accumulation at G0/G1 phase at 50 nM (reference value: 53.24%); assay type: functional
# [24] = system: NCI-H2228; test: Cell cycle arrest in EML4-ALK-positive human NCI-H2228 cells assessed as cells accumulation at G2/M phase at 50 nM (reference value: 11.28%); assay type: functional
# [25] = system: NCI-H2228; test: Cell cycle arrest in EML4-ALK-positive human NCI-H2228 cells assessed as cells accumulation at S phase at 50 nM (reference value: 35.48%); assay type: functional
# [26] = system: NCI-H2228; test: Cell cycle arrest in EML4-ALK-positive human NCI-H2228 cells assessed as cells accumulation at G0/G1 phase at 100 nM (reference value: 53.24%); assay type: functional
# [27] = system: NCI-H2228; test: Cell cycle arrest in EML4-ALK-positive human NCI-H2228 cells assessed as cells accumulation at G2/M phase at 100 nM (reference value: 11.28%); assay type: functional
# [28] = system: NCI-H2228; test: Cell cycle arrest in EML4-ALK-positive human NCI-H2228 cells assessed as cells accumulation at S phase at 100 nM (reference value: 35.48%); assay type: functional
# [29] = Metabolic stability in Sprague-Dawley rat liver microsomes assessed as half life at 10 uM preincubated for 5 mins followed by NADPH addition and measured upto 60 mins by HPLC analysis; assay type: ADME, Microsome
# [30] = Intrinsic clearance in Sprague-Dawley rat liver microsomes at 10 uM preincubated for 5 mins followed by NADPH addition and measured upto 60 mins by HPLC analysis; assay type: ADME, Microsome; details: read-out: CLH
# [31] = Intrinsic clearance in Sprague-Dawley rat liver at 10 uM preincubated for 5 mins followed by NADPH addition and measured upto 60 mins by HPLC analysis; assay type: ADME, tissue-based; details: read-out: CLH
# [32] = Metabolic stability in Sprague-Dawley rat liver microsomes assessed as compound remaining at 10 uM preincubated for 5 mins followed by NADPH addition and measured upto 60 mins by HPLC analysis; assay type: ADME, Microsome; details: read-out: Stability
# [33] = Metabolic stability in Sprague-Dawley rat liver microsomes assessed as compound remaining at 10 uM preincubated for 5 mins and measured upto 60 mins by HPLC analysis; assay type: ADME, Microsome; details: read-out: Stability
# [34] = system: NCI-H2228; test: Antitumor activity against EML4-ALK-positive human NCI-H2228 cells xenografted in female BALB/c nude mouse assessed as tumor growth inhibition at 50 mg/kg, IG administered every 2 days for 7 times; assay type: functional; details: NCI-H2228, po, 48 h, time 2 day, read-out: TGI
# [35] = Toxicity in female BALB/c nude mouse xenografted with EML4-ALK-positive human NCI-H2228 cells assessed as body weight loss at 25 to 50 mg/kg, IG administered every 2 days for 7 times; assay type: organism-based; details: in vivo, po, 48 h, dose 25-50 mg/kg, time 2 day
# [36] = system: NCI-H3122; test: cells; details: Homo sapiens, NCI-H3122, 72 h
# Description: Antiproliferative activity against EML4-ALK-positive human NCI-H3122 cells incubated for 72 hrs and measured by CCK-8 assay
# [37] = system: NCI-H2228; test: cells; details: Homo sapiens, NCI-H2228, 72 h
# Description: Antiproliferative activity against EML4-ALK-positive human NCI-H2228 cells incubated for 72 hrs and measured by CCK-8 assay
# [38] = system: KARPAS-299; test: cells; details: Homo sapiens, KARPAS-299, 72 h
# Description: Antiproliferative activity against NPM-ALK-positive human KARPAS-299 cells incubated for 72 hrs and measured by CCK-8 assay
# [39] = system: A549; test: cells; details: Homo sapiens, A549, 72 h
# Description: Antiproliferative activity against EGFR-positive human A549 cells incubated for 72 hrs and measured by CCK-8 assay
smiles,measurement,setting,value
CC(C)S(=O)(=O)c1ccccc1Nc1nc(Nc2ccc3c(NC(=O)CN4CCCC4)n[nH]c3c2)ncc1Cl,IC50,[1],1.6 nM
same,IC50,[2],0.71 nM
same,IC50,[3],1.3 nM
same,IC50,[4],> 1000 nM
same,IC50,[5],8210 nM
same,IC50,[6],1870 nM
same,IC50,[7],2220 nM
same,IC50,[8],1560 nM
same,IC50,[9],1230 nM
same,IC50 at 72 h,[10],> 20000 nM
same,Activity,[11],Active
same,Activity,[12],7.3%
same,Activity,[13],2.31%
same,Activity,[14],17.02%
same,Activity,[15],5.01%
same,Activity,[16],Dde
same,Activity,[17],Dde
same,Activity,[18],18.83%
same,Activity,[19],23.28%
same,Activity,[20],45.1%
same,Activity,[21],45.5%
same,Activity,[22],9.4%
same,Activity,[23],31.29%
same,Activity,[24],61.31%
same,Activity,[25],7.4%
same,Activity,[26],26.77%
same,Activity,[27],73.23%
same,Activity,[28],0%
same,half-life at 10 µM,[29],16.3 min
same,microsomal CLint at 10 µM,[30],84.9 µL/min/mg
same,CLint scaled at 10 µM,[31],153 mL/min/kg
same,"remaining at 1 h, 10 µM",[32],7.5%
same,"remaining at 1 h, 10 µM",[33],86.2%
same,inhibition in vivo at 50 mg/kg,[34],70.5%
same,Activity,[35],Non-Toxic
same,IC50,[36],12 nM
same,IC50,[37],17 nM
same,IC50,[38],15 nM
same,IC50,[39],1330 nM
